Laboratory results reported in US10563214B2, “Use of micropeptides for promoting plant growth” (UNIVERSITE TOULOUSE III-PAUL SABATIER, priority 2014, dated 2020).
“Also recorded” adds a separate entry of the source.

Assays:
Arabidopsis thaliana [1] = assay: A. thaliana growth test, watering with miPEP164a; assay type: in vivo; conditions: watered and sprayed
Protocol: Watering was carried out every 2-3 days with water for the control plants and with water containing 0.1 μM or 1 μM of synthetic peptide (the sequence of which is identical to miPEP164a or to miPEP165a) for the test plants.

miR164a = assay: Northern blot analysis of the accumulation of miR164a in roots treated with synthetic peptide; assay type: in vivo, Arabidopsis thaliana; conditions: 0.1 μM synthetic peptide solubilized in water vs water control, U6 loading control, FIG. 1
Protocol: The photographs show the results of a Northern blot analysis of the accumulation of miR164a in roots treated with water (control, photograph on the left) or with 0.1 μM of a synthetic peptide, having a sequence identical to that of miPEP164a, solubilized in water (0.1 μM miPEP164a). The RNA U6 is used as a loading control, allowing the quantity of miR164a to be quantified.
The A. thaliana Col-0 plants are cultivated on MS basic medium supplemented with 10 g/l of sucrose.
Northern blot analysis was carried out according to the protocol described in Lauressergues et al. Plant J, 72(3):512-22, 2012.
The biological samples were homogenized in a buffer containing 0.1 M of NaCl, 2% SDS, 50 mM of Tris-HCl (pH 9), 10 mM of EDTA (pH 8) and 20 mM of mercaptoethanol, and the RNA was extracted twice with a phenol/chloroform mixture and precipitated with ethanol.
The RNA was loaded on PAGE 15% gel and transferred onto a nylon membrane (HybondNX, Amersham). The RNA was hybridized with an oligonucleotide probe, with radioactive labelling at its end, for detecting the RNA U6 or for miR164a.
The hybridizations were carried out at 55° C. The hybridization signals were quantified using a phosphorimager (Fuji) and normalized with the signal of the probe specific to the RNA U6.

AtmiR319a = assay: qPCR of AtmiR319a relative expression in plants overexpressing AtmiPEP319a; assay type: in vivo, Arabidopsis thaliana; conditions: plant overexpressing AtmiPEP319a (35S promoter) vs control plant; n=10; FIG. 7
Protocol: The error bar corresponds to the standard error of the mean (number of individuals=10).
The RNA was extracted using the reagent Tri-Reagent (MRC) according to the manufacturer's instructions, apart from precipitation of the RNA, which was carried out with 3 volumes of ethanol. Reverse transcription of the RNA was carried out using the stem-loop specific primer RTprimer in combination with hexamers in order to carry out reverse transcription of RNA of high molecular weight. Briefly, 1 μg of RNA was added to the stem-loop specific primer (0.2 μM), hexamer (500 ng), buffer RT (1×), the enzyme SuperScript Reverse transcriptase (SSIII) (one unit), dNTPs (0.2 mM each), DTT (0.8 mM) in a final reaction mixture of 25 μl. In order to carry out the reverse transcription, a pulsed reverse transcription reaction was carried out (40 repetitions of the following cycle: 16° C. for 2 minutes, 42° C. for one minute and 50° C. for one second, followed by final inactivation of the reverse transcription at 85° C. for 5 minutes).
The total RNA of the roots of M. truncatula or of the leaves of tobacco was extracted using the extraction kit RNeasy Plant Mini Kit (Qiagen). Reverse transcription was carried out using the reverse transcriptase SuperScript II (Invitrogen) starting from 500 ng of total RNA. Three repetitions (n=3) were carried out, each with two technical repetitions. […]

Arabidopsis thaliana [2] = assay: A. thaliana growth test, watering and spraying with miPEP319a; assay type: in vivo; conditions: 0.1 μM synthetic peptide, watered and sprayed, after 3 weeks of growth vs water control; FIG. 8
Protocol: Arabidopsis thaliana seeds were germinated on GiFi, and then were transferred onto compost and were grown for 3 weeks.
Watering was carried out every 2-3 days and spraying was carried out every day, with water for the control plants and with water containing 0.1 μM of synthetic peptide (the sequence of which is identical to miPEP319a) for the test plants.

[3] = 1 μM synthetic peptide, after 39 days of growth vs water control, FIG. 3

Substance | plant growth (Arabidopsis thaliana [1]; 0.1 μM synthetic peptide, after 3 weeks of growth vs water control, FIG. 2) | number of flowers (Arabidopsis thaliana [1]; [3]) | plant growth (Arabidopsis thaliana [1]; [3]) | accumulation of miR164a (miR164a) | accumulation (relative expression) of AtmiR319a (AtmiR319a) | plant growth (Arabidopsis thaliana [2])
miPEP164a: Peptide encoded by miORF on pri-miR164a of A. thaliana, SEQ ID NO: 2, MPSWHGMVLLPYVKHTHASTHTHTHNIYGCACELVFH (listed as Arabidopsis thaliana) | increases the plant's growth significantly; also recorded: increases the plants' growth significantly | increases the plant's growth and number of flowers significantly | increases the plant's growth and number of flowers significantly | increase in the accumulation of miR164a | – | –
miPEP319a: Peptide encoded by miORF on pri-miR319a of A. thaliana, SEQ ID NO: 10, MNIHTYHHLLFPSLVFHQSSDVPNALSLHIHTYEYIIVVIDPFRITLAFR (listed as Arabidopsis thaliana) | – | – | – | – | increase in the accumulation of Atmir319a | increases the plant's growth significantly
